Laboratory results as given in PubChem BioAssay AID274 (DTP/NCI, 2004).
Values joined by “and” are separate entries in the source; they are usually repeats but may differ in a detail not shown here. Identical values can stand only once. Toxic doses and inconclusive results are not listed. Rule for the calls: active = survival T/C of 150% or more; inactive = T/C below 125% in these data.

System: BDF1 mice, Lewis lung carcinoma iv, survival T/C
Experiment: NCI In Vivo Anticancer Drug Screen. Data for tumor model Lewis Lung Carcinoma (intravenous) in B6D2F1 (BDF1) mice
Settings: endpoint: median survival time, higher = longer survival
Method: The antitumor activity of compounds was measured in mice bearing transplantable tumors. Survival or tumor size were measured and the results are expressed as the measurement made in the treated group (T) divided by the measurement made in the vehicle treated control group (C). The tumor model used in this assay is Lewis Lung Carcinoma (intravenous) in B6D2F1 (BDF1) mice

[1] = dose: 6.25 mg/kg/injection, schedule: Q01DX009 (ip), vehicle: saline with Tween-80
[2] = dose: 12.5 mg/kg/injection, schedule: Q01DX009 (ip), vehicle: saline with Tween-80
[3] = dose: 25.0 mg/kg/injection, schedule: Q01DX009 (ip), vehicle: saline with Tween-80
[4] = dose: 50.0 mg/kg/injection, schedule: Q01DX009 (ip), vehicle: saline with Tween-80
[5] = dose: 25.0 mg/kg/injection, schedule: Q01DX009 (ip), vehicle: Klucel (hydroxypropylcellulose) (HPC)
[6] = dose: 50.0 mg/kg/injection, schedule: Q01DX009 (ip), vehicle: Klucel (hydroxypropylcellulose) (HPC)
[7] = dose: 100.0 mg/kg/injection, schedule: Q01DX009 (ip), vehicle: Klucel (hydroxypropylcellulose) (HPC)
[8] = dose: 1.0 mg/kg/injection, schedule: Q01DX009 (ip), vehicle: saline

Measured: T/C

CC(=O)O[C@H]1C(=O)[C@@]2(C)[C@H]([C@H](OC(=O)c3ccccc3)[C@]3(O)C[C@H](OC(=O)[C@H](O)[C@@H](NC(=O)c4ccccc4)c4ccccc4)C(C)=C1C3(C)C)[C@]1(OC(C)=O)CO[C@@H]1C[C@@H]2O
inactive: dose: 25.9 mg/kg/injection, schedule: Q04DX003 (ip), vehicle: Klucel (hydroxypropylcellulose) (HPC) 93 % of control | dose: 43.2 mg/kg/injection, schedule: Q04DX003 (ip), vehicle: Klucel (hydroxypropylcellulose) (HPC) 86 % of control

N#Cc1nc(C#N)c(Sc2ccccc2)c(Sc2ccccc2)c1Sc1ccccc1
inactive: dose: 3.12 mg/kg/injection, schedule: Q01DX009 (ip), vehicle: saline with Tween-80 95 % of control | [1] 94 % of control | [2] 97 % of control | [3] 95 % of control | [4] 98 % of control | dose: 100.0 mg/kg/injection, schedule: Q01DX009 (ip), vehicle: saline with Tween-80 98 % of control

CCc1c(CC(=O)O)c2cc(C)ccc2n1Cc1ccc(Cl)cc1
inactive: dose: 3.12 mg/kg/injection, schedule: Q01DX009 (ip), vehicle: Klucel (hydroxypropylcellulose) (HPC) 110 % of control | dose: 3.13 mg/kg/injection, schedule: Q01DX009 (ip), vehicle: Klucel (hydroxypropylcellulose) (HPC) 119 % of control | dose: 6.25 mg/kg/injection, schedule: Q01DX009 (ip), vehicle: Klucel (hydroxypropylcellulose) (HPC) 105 % of control and 108 % of control | dose: 12.5 mg/kg/injection, schedule: Q01DX009 (ip), vehicle: Klucel (hydroxypropylcellulose) (HPC) 100 % of control and 117 % of control | [5] 91 % of control and 99 % of control | [6] 95 % of control and 119 % of control | [7] 112 % of control and 88 % of control

C/C=C/C=C/c1cc2cc3c(c(O)c2c(=O)[nH]1)C1(CC3)C(O)=c2c(=O)c3c(=O)cc(OC)c(=O)c=3c(=O)c2=C1O (centres undefined)
inactive: dose: 0.06 mg/kg/injection, schedule: Q01DX009 (ip), vehicle: DMSO 97 % of control | dose: 0.12 mg/kg/injection, schedule: Q01DX009 (ip), vehicle: DMSO 102 % of control | dose: 0.25 mg/kg/injection, schedule: Q01DX009 (ip), vehicle: DMSO 95 % of control and 101 % of control | dose: 0.5 mg/kg/injection, schedule: Q01DX009 (ip), vehicle: DMSO 102 % of control | dose: 16.0 micrograms/kg/injection, schedule: Q01DX009 (ip), vehicle: DMSO 102 % of control | dose: 31.0 micrograms/kg/injection, schedule: Q01DX009 (ip), vehicle: DMSO 93 % of control | dose: 62.0 micrograms/kg/injection, schedule: Q01DX009 (ip), vehicle: DMSO 91 % of control | dose: 125.0 micrograms/kg/injection, schedule: Q01DX009 (ip), vehicle: DMSO 102 % of control

CC(C)NCC(O)COc1cccc2ccccc12 (centres undefined)
inactive: dose: 8.0 mg/kg/injection, schedule: Q01DX009 (ip), vehicle: Klucel (hydroxypropylcellulose) (HPC) 90 % of control | dose: 16.0 mg/kg/injection, schedule: Q01DX009 (ip), vehicle: Klucel (hydroxypropylcellulose) (HPC) 96 % of control | dose: 32.0 mg/kg/injection, schedule: Q01DX009 (ip), vehicle: Klucel (hydroxypropylcellulose) (HPC) 92 % of control | dose: 64.0 mg/kg/injection, schedule: Q01DX009 (ip), vehicle: Klucel (hydroxypropylcellulose) (HPC) 100 % of control

C/C=C(\C)c1cc(=O)c2c(C)cc3c(c2o1)C(=O)c1c(O)c(C2CC(C)(N(C)C)C(O)C(C)O2)cc(C2CC(N(C)C)C(O)C(C)O2)c1C3=O (centres undefined)
inactive: dose: 31.25 micrograms/kg/injection, schedule: Q01DX009 (ip), vehicle: saline 103 % of control | dose: 62.5 micrograms/kg/injection, schedule: Q01DX009 (ip), vehicle: saline 106 % of control | dose: 125.0 micrograms/kg/injection, schedule: Q01DX009 (ip), vehicle: saline 112 % of control | dose: 250.0 micrograms/kg/injection, schedule: Q01DX009 (ip), vehicle: saline 86 % of control

C[C@]12CC[C@H]3[C@@H](CCC4=C[C@@H](OC5OCC(OC6OC(CO)C(O)C(O)C6O)C(O)C5O)CC[C@@]43C=O)[C@@]1(O)CCC2C1=CC(=O)OC1 (some centres undefined)
inactive: dose: 0.16 mg/kg/injection, schedule: Q01DX009 (ip), vehicle: Klucel (hydroxypropylcellulose) (HPC) 99 % of control | dose: 0.31 mg/kg/injection, schedule: Q01DX009 (ip), vehicle: Klucel (hydroxypropylcellulose) (HPC) 100 % of control | dose: 0.63 mg/kg/injection, schedule: Q01DX009 (ip), vehicle: Klucel (hydroxypropylcellulose) (HPC) 102 % of control | dose: 1.25 mg/kg/injection, schedule: Q01DX009 (ip), vehicle: Klucel (hydroxypropylcellulose) (HPC) 99 % of control | dose: 2.5 mg/kg/injection, schedule: Q01DX009 (ip), vehicle: Klucel (hydroxypropylcellulose) (HPC) 122 % of control | dose: 5.0 mg/kg/injection, schedule: Q01DX009 (ip), vehicle: Klucel (hydroxypropylcellulose) (HPC) 122 % of control

CCCCCC(O)C1C(=O)OC(C)C(O)/C=C/C=C/C=C/C=C\C=C(\C)C(O)CC(O)CC(O)CC(O)CC(O)CC(O)CC1O (centres undefined)
inactive: dose: 3.12 mg/kg/injection, schedule: Q01DX009 (ip), vehicle: distilled water + alcohol 103 % of control | dose: 6.25 mg/kg/injection, schedule: Q01DX009 (ip), vehicle: distilled water + alcohol 96 % of control | dose: 12.5 mg/kg/injection, schedule: Q01DX009 (ip), vehicle: distilled water + alcohol 106 % of control | dose: 25.0 mg/kg/injection, schedule: Q01DX009 (ip), vehicle: distilled water + alcohol 96 % of control

CN(C)c1ccc2c(SCC(=O)OCC(=O)[C@@]3(O)CC[C@H]4[C@@H]5CCC6=CC(=O)C=C[C@]6(C)[C@H]5C(=O)C[C@@]43C)c3ccc(N(C)C)cc3nc2c1
inactive: [5] 104 % of control | [6] 106 % of control | [7] 107 % of control | dose: 200.0 mg/kg/injection, schedule: Q01DX009 (ip), vehicle: Klucel (hydroxypropylcellulose) (HPC) 102 % of control | dose: 400.0 mg/kg/injection, schedule: Q01DX009 (ip), vehicle: Klucel (hydroxypropylcellulose) (HPC) 107 % of control

N/C(=N\O)c1cn(C2OC(CO)C(O)C2O)c2ncnc(N)c12 (centres undefined)
inactive: [8] 91 % of control | dose: 2.0 mg/kg/injection, schedule: Q01DX009 (ip), vehicle: saline 88 % of control | dose: 4.0 mg/kg/injection, schedule: Q01DX009 (ip), vehicle: saline 98 % of control

CO[C@@]12[C@H](COC(N)=O)C3=C(C(=O)C(C)=C(N)C3=O)N1C[C@@H]1N[C@@H]12
inactive: dose: 0.12 mg/kg/injection, schedule: Q01DX009 (ip), vehicle: saline 101 % of control | dose: 0.25 mg/kg/injection, schedule: Q01DX009 (ip), vehicle: saline 105 % of control | dose: 0.5 mg/kg/injection, schedule: Q01DX009 (ip), vehicle: saline 98 % of control | [8] 101 % of control

CCOC(=O)c1c[nH]c2oc(/C=N/N3CC(CN4CCOCC4)OC3=O)cc2c1=O (centres undefined)
inactive: dose: 6.25 mg/kg/injection, schedule: Q01DX009 (ip), vehicle: suspension in saline 108 % of control | dose: 12.5 mg/kg/injection, schedule: Q01DX009 (ip), vehicle: suspension in saline 105 % of control | dose: 25.0 mg/kg/injection, schedule: Q01DX009 (ip), vehicle: suspension in saline 104 % of control | dose: 50.0 mg/kg/injection, schedule: Q01DX009 (ip), vehicle: suspension in saline 114 % of control | dose: 100.0 mg/kg/injection, schedule: Q01DX009 (ip), vehicle: suspension in saline 106 % of control

COc1cc(C(C)(C)C)cc(OC)c1C(O)(c1c(OC)cc(C(C)(C)C)cc1OC)c1c(OC)cc(C(C)(C)C)cc1OC
inactive: [1] 99 % of control and 106 % of control | [2] 98 % of control and 99 % of control | [3] 97 % of control and 102 % of control | [4] 99 % of control

COc1cc2c(c(OC)c1OC)-c1ccc(OC)c(=O)cc1[C@@H](NC(C)=O)CC2
inactive: dose: 0.19 mg/kg/injection, schedule: Q01DX009 (ip), vehicle: saline 102 % of control | dose: 0.38 mg/kg/injection, schedule: Q01DX009 (ip), vehicle: saline 109 % of control
